Earlier results in US20250387524A1, “METHOD AND SYSTEM FOR THE PRODUCTION OF DISINFECTION AND/OR STERILISATION SOLUTIONS” (UNIVERSITAT JAUME I, priority 2022, published 2025).

Conditions: EU-US approved

| SMILES | Minimum biocidal concentration |
| --- | --- |
| O=CCCCC=O [Glutaraldehyde] | ≥2% |
| O=Cc1ccccc1C=O [Orto-phtalaldehyde] | 0.55% |
